In article PMC10764104, “Discovery of Molecular Glue Degraders via Isogenic Morphological Profiling” (ACS Chemical Biology, 2023):
Read-outs that look alike come from different tables or passages of the source.

Target: T1, recombinant DDB1-CRBN (Homo sapiens, UniProt Q96SW2)
T1 construct: His; made in house; host or cells: High Five insect cells (baculovirus made and propagated in SF9 cells)
Assay: Fluorescence polarization-based competition assay for CRBN binding
Procedure: Prior to screening the compound library in the isogenic CPA, we assessed their CRBN binding affinities using a fluorescence-polarization-based competition assay with recombinant DDB1-CRBN and the fluorescent tracer 16 (Figure S2). […] We also assessed the cytotoxicity of the CRBN binders in RKO wild-type (WT) cells to determine the appropriate treatment concentration. […]
Fluorescence Polarization‐based competition assay
Fluorescence Polarization assays were performed in 384‐well, Low Volume, Black, Round Bottom, Polystyrene Nonbinding surface Microplates (Corning, #4514). The test compounds were incubated with 200 nM CRBN‐DDB1 and 20 nM Pomalidomide‐fluorescein tracer 16 in 50 mM Tris‐HCl pH 7.5, 200 mM NaCl, 1 mM DTT, 0.02% Triton X‐ 100, and 0.1 µg/µL Bovine Serum Albumin (Sigma Aldrich, #A7030) in a total volume of 25 µL. Fluorescence polarization values were determined with a PerkinElmer Envision reader with FITC FP dual mirror and FITC FP 480 excitation filter and FITC FP 535 emission filters. Fluorescence polarization values of a 10x serial dilution (10 nM to 100 µM) of the test compounds were determined in triplicates. EC50 values were calculated with GraphPad Prism software (version 10.0.2) with a non‐linear fit function (4PL sigmoidal curve fit) adjusting the bottom constrain to the FP value of free tracer. […]

[1] = 200 nM CRBN-DDB1, 20 nM pomalidomide-fluorescein tracer 16, triplicates, read-out: FP_CRBN_binding: CRBN binding affinity, EC50

| SMILES | EC50 [1] | EC50 |
| --- | --- | --- |
| CN(Cc1ccc2[nH]nnc2c1)S(=O)(=O)Oc1ccc(C2CCC(=O)NC2=O)cc1 (stereo not shown) [FL5-15] | 502 nM | – |
| O=C1CCC(c2ccc(OS(=O)(=O)N3CCC(c4ccncc4)CC3)cc2)C(=O)N1 (stereo not shown) [FL5-16] | 4220 nM | – |
| CC1c2cc(F)ccc2CCN1S(=O)(=O)Oc1ccc(C2CCC(=O)NC2=O)cc1 (stereo not shown) [FL5-17] | 908 nM | – |
| CN(C)c1ncc(CN(C)S(=O)(=O)Oc2ccc(C3CCC(=O)NC3=O)cc2)cn1 (stereo not shown) [FL5-18] | 586 nM | – |
| CC1c2cccn2CCN1S(=O)(=O)Oc1ccc(C2CCC(=O)NC2=O)cc1 (stereo not shown) [FL5-19] | 940 nM | – |
| CN(Cc1ccc2c(c1)OCO2)S(=O)(=O)Oc1ccc(C2CCC(=O)NC2=O)cc1 (stereo not shown) [FL5-20] | 775 nM | – |
| CN(C1CC1)S(=O)(=O)Oc1ccc(C2CCC(=O)NC2=O)cc1 (stereo not shown) [FL5-21] | 899 nM | – |
| C[C@@H](O)CN(C)S(=O)(=O)Oc1cccc(C2CCC(=O)NC2=O)c1 (stereo partly shown) [FL6-1] | 584 nM | – |
| O=C1CCC(c2cccc(OS(=O)(=O)N3CC(CCO)C3)c2)C(=O)N1 (stereo not shown) [FL6-2] | 1250 nM | – |
| CC(C)(O)C1CCN(S(=O)(=O)Oc2cccc(C3CCC(=O)NC3=O)c2)C1 (stereo not shown) [FL6-4] | 1300 nM | – |
| O=C1CCC(c2cccc(OS(=O)(=O)N3CCOCC3)c2)C(=O)N1 (stereo not shown) [FL6-5] | 679 nM | – |
| C[C@@H]1C[C@H](C)CN(S(=O)(=O)Oc2cccc(C3CCC(=O)NC3=O)c2)C1 (stereo partly shown) [FL6-6] | 961 nM | – |
| CC1(C)CN(S(=O)(=O)Oc2cccc(C3CCC(=O)NC3=O)c2)CCS1(=O)=O (stereo not shown) [FL6-7] | 743 nM | – |
| CC1(C)CN(S(=O)(=O)Oc2cccc(C3CCC(=O)NC3=O)c2)CC2(CCOC2)O1 (stereo not shown) [FL6-8] | 1340 nM | – |
| O=C1CCC(c2cccc(OS(=O)(=O)N3CC4(CNC(=O)N4)C3)c2)C(=O)N1 (stereo not shown) [FL6-9] | 713 nM | – |
| O=C1CCC(c2cccc(OS(=O)(=O)N3C[C@@H](F)[C@H](F)C3)c2)C(=O)N1 (stereo partly shown) [FL6-10] | 1140 nM | – |
| CN(Cc1ncnn1C)S(=O)(=O)Oc1cccc(C2CCC(=O)NC2=O)c1 (stereo not shown) [FL6-11] | 887 nM | – |
| O=C1CCC(c2cccc(OS(=O)(=O)N3CCC(c4ccco4)C3)c2)C(=O)N1 (stereo not shown) [FL6-12] | 570 nM | – |
| Cc1cn2c(n1)CN(S(=O)(=O)Oc1cccc(C3CCC(=O)NC3=O)c1)CC2 (stereo not shown) [FL6-13] | 1080 nM | – |
| CN(Cc1ncc(C2CC2)o1)S(=O)(=O)Oc1cccc(C2CCC(=O)NC2=O)c1 (stereo not shown) [FL6-14] | 837 nM | – |
| CN(Cc1ccc2[nH]nnc2c1)S(=O)(=O)Oc1cccc(C2CCC(=O)NC2=O)c1 (stereo not shown) [FL6-15] | 520 nM | – |
| O=C1CCC(c2cccc(OS(=O)(=O)N3CCC(c4ccncc4)CC3)c2)C(=O)N1 (stereo not shown) [FL6-16] | 645 nM | – |
| CC1c2cc(F)ccc2CCN1S(=O)(=O)Oc1cccc(C2CCC(=O)NC2=O)c1 (stereo not shown) [FL6-17] | 803 nM | – |
| CN(C)c1ncc(CN(C)S(=O)(=O)Oc2cccc(C3CCC(=O)NC3=O)c2)cn1 (stereo not shown) [FL6-18] | 794 nM | – |
| CC1c2cccn2CCN1S(=O)(=O)Oc1cccc(C2CCC(=O)NC2=O)c1 (stereo not shown) [FL6-19] | 874 nM | – |
| CN(Cc1ccc2c(c1)OCO2)S(=O)(=O)Oc1cccc(C2CCC(=O)NC2=O)c1 (stereo not shown) [FL6-20] | 622 nM | – |
| CN(C1CC1)S(=O)(=O)Oc1cccc(C2CCC(=O)NC2=O)c1 (stereo not shown) [FL6-21] | 1070 nM | – |
| O=C1CCC(c2ccccc2OS(=O)(=O)F)C(=O)N1 (stereo not shown) [FL7] | – | 72400 nM |
